Results from US20190048365A1, “MITOCHONDRIAL MICROINJECTION OF OOCYTES” (Eastern Virginia Medical School, priority 2015, published 2019).

How the values were obtained:
[1] = system: purified human platelets; assay: Fluo-4 staining of purified platelets (platelet activation); type: cell-based; settings: Fluo-4, with 2 mM calcium chloride
Text: FIGS. 6A and 6B provide further evidence of the functionality of the purified human platelets. […] Dull green fluorescence indicates functional but inactivated platelets. To activate platelets so they can begin to aggregate to initiate the blood clotting process, calcium ions should be at a significant concentration within the platelet cytoplasm.

[2] = system: inner mitochondrial membrane potential of human platelets; settings: JC-1 2 μM, purified human platelets
Method: In FIG. 5A, platelets are stained with mitochondrial inner membrane sensitive dye JC-1(2 μM) (630× magnification). […] The red stained mitochondria reflect mitochondria with a Wm capable of supporting ATP production. […] FCCP is an uncoupler, a chemical that destroys the inner mitochondrial membrane potential Wm.

[3] = system: isolated human platelet mitochondria; assay: ATP levels in isolated mitochondria incubated with supplement (chemiluminescence assay); type: biochemical; settings: 2.0 micromolar (maximum increase)
Method: Experiment: Aliquots of isolated human platelet mitochondria were incubated for different amounts of time in the presence of differing concentrations of L-carnitine, a compound known to stimulate the uptake and metabolism of fat molecules for use by the mitochondria to produce ATP. Along the X-axis of this graph, the numbers 1, 2, 3, and 4 refer to 0, 0.2 micromolar, 2.0 micromolar, and 20 micromolar concentrations of L-carnitine in the mitochondrial incubation buffer. The mitochondrial aliquots in hatched columns (Series 1) were incubated for 20 minutes in the presence of the L-carnitine while the mitochondrial aliquots in non-hatched columns (Series 2) were incubated for 60 minutes in the presence of L-carnitine. After these incubation times, the samples were processed to measure ATP by a very sensitive chemiluminescence assay.

## CNc1ccc2oc(C[C@H]3O[C@@]4(CC[C@H]3C)O[C@H]([C@H](C)C(=O)c3ccc[nH]3)[C@H](C)C[C@H]4C)nc2c1C(=O)O [A23187]
[1]
  effect on Fluo-4 green fluorescence (platelet activation): much more intense green fluorescence

## N#CC(C#N)=NNc1ccc(OC(F)(F)F)cc1 [FCCP, Carbonyl cyanide-4-(trifluoromethoxy)phenylhydrazone]
[2]
  effect on JC-1 red fluorescence (functional mitochondria): elimination of the red fluorescence

## C[N+](C)(C)C[C@H](O)CC(=O)[O-] [L-carnitine]
[3]; 20 minute incubation (Series 1)
  increase in ATP levels: 47%
[3]; 60 minute incubation (Series 2)
  increase in ATP levels: 80%
